{"source": "patent US20210128691A1", "about": "(priority 2019, published 2021)", "origin": "cited, not measured here", "key": {"[1]": {"system": "pre-eclampsia", "details": "dietary supplements, high risk patients"}, "[2]": {"system": "cyclic nucleotide PDE", "details": "rats made hypothyroid with increased PDE activity"}, "[3]": {"details": "in vivo"}}}
{"smiles": "N=C(N)NCCC[C@H](N)C(=O)O", "note": "[L-arginine]", "values": [{"measurement": "incidence of PE", "setting": "[1]", "value": "significantly reduce, but not eliminate"}]}
{"smiles": "N[C@@H](Cc1cc(I)c(Oc2ccc(O)c(I)c2)c(I)c1)C(=O)O", "note": "[T3, L-tri-iodothyronine]", "values": [{"measurement": "time to peak levels following ingestion", "value": "one to two"}, {"measurement": "rise of serum concentration (amount of drug in circulation)", "setting": "following ingestion", "value": "250% to 600"}, {"measurement": "PDE activity after administration", "setting": "[2]", "value": "returned to normal"}]}
{"smiles": "N[C@@H](Cc1cc(I)c(Oc2cc(I)c(O)c(I)c2)c(I)c1)C(=O)O", "note": "[T4, L-thyroxine]", "values": [{"measurement": "half-life", "setting": "[3]", "value": "120 to 170", "unit": "h"}]}
{"smiles": "CN1CC(=O)N2[C@H](c3ccc4c(c3)OCO4)c3[nH]c4ccccc4c3C[C@@H]2C1=O", "note": "[tadalafil]", "values": [{"measurement": "half-life", "setting": "[3]", "value": "17 to 18", "unit": "h"}]}
